{
  "source": "patent US9675627B2",
  "about": "“Dosing regimens for treating and/or preventing cerebral amyloidoses” (Amicus Therapeutics, Inc., priority 2014, dated 2017)",
  "key": {"O-GlcNAcase": {"target": "T1, O-GlcNAcase (Homo sapiens, UniProt O60502)", "T1 construct": "host or cells: wild-type fibroblasts AG07059 and SH-SY5Y cells", "T1 sequence (O60502 1-916)": "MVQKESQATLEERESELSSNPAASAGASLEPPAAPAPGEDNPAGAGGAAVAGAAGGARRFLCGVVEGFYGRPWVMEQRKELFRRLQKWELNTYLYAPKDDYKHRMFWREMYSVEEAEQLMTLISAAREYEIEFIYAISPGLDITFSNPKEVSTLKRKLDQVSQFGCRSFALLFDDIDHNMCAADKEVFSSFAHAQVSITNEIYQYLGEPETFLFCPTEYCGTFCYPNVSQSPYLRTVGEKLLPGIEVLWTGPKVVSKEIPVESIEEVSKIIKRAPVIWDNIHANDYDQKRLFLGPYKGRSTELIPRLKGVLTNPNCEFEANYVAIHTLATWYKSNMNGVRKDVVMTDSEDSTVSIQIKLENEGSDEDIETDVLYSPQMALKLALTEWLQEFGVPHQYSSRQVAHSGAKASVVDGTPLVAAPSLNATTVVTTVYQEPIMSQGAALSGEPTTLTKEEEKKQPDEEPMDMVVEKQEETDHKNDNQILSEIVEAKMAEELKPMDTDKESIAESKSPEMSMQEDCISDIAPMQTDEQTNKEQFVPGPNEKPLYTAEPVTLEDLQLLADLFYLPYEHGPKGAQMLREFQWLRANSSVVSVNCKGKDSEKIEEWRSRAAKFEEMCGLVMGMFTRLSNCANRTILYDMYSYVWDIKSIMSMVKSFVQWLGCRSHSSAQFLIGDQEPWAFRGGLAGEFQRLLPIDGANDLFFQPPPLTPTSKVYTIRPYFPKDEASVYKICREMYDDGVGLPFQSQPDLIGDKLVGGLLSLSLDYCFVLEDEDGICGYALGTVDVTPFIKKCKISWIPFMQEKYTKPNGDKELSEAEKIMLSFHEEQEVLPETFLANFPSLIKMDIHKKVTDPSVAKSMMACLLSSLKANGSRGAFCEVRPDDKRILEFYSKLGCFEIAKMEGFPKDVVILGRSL", "assay": "Cellular O-GlcNAcase activity (protein O-GlcNAc Western blot) in fibroblasts and SH-SY5Y cells", "assay_type": "cell-based", "conditions": "concentrations up to 100 μM", "method": "Effect of AdDNJ on cellular O-GlcNAcase activity was tested in both wild-type fibroblast (AG07059, Coriell) and SH-SY5Y cells. Fibroblasts were incubated with or without 10 μM AdDNJ or Thiamet G in complete media for 24 h at 37° C. in a humidified 8% CO2 incubator. For SH-SY5Y cells, multiple concentrations (0 μM to 100 μM) of AdDNJ and Thiamet G were used. Cell pellets were lysed in RIPA buffer and total protein-associated O-GlcNAc level was measured using Western blot. Briefly, 40 μg total protein was separated, transferred to PVDF and probed with an anti O-GlcNAc antibody (18B10.C7, Pierce). Chemiluminescence was imaged using an Alpha Innotech FluoroChem Q imager and quantified by densitometry using AlphaView SA software (Alpha Innotech). The blots were stripped and re-probed with an anti-calnexin antibody (ab22595, Abcam). For O-GlcNAc quantification, whole lane O-GlcNAc densitometry was background subtracted and normalized to the calnexin load control band."}, "β-hex [1]": {"test_system": "β-hex", "assay": "beta-hexosaminidase enhancement assay in fibroblasts", "assay_type": "cell-based", "conditions": "healthy human skin fibroblasts, 5 days, 95, 390 or 780 nM, dose-dependent", "source_text": "Enzymatic activity measurements were done in duplicate."}, "Aβ": {"test_system": "Aβ", "assay": "Aβ immunohistochemistry (mAb 6E10)", "assay_type": "in vivo, Dutch APP^E693Q transgenic mice", "conditions": "100 mg/kg, 3 months", "method": "(§1) The generation and characterization of Dutch APPE693Q mice transgenic mice is described in Gandy, S., et al. Days to criterion as an indicator of toxicity associated with human Alzheimer amyloid-beta oligomers. Annals of neurology 68, 220-230 (2010). 3-month-old male Dutch APP^E693Q mice transgenic mice were orally gavaged 5 days/week with either vehicle (water) (n=15) or 3, 10, 30 or 100 mg/kg AdDNJ for 3 months (n=13). All animal studies were approved and conducted in accordance with the Institutional Animal Care and Usage Committee. Mice were kept in a pathogen-free environment, on a 12-hour light/dark cycle and given ad libitum access to food and water. At 6 month of age treatment groups, and a 3-month-old untreated baseline group (n=15), were cognitively assessed in the NOR, EPM and FC tests. 48 hours following the final dose mice were perfused with ice-cold 1×PBS. The brain was removed and dissected into two hemispheres. One half was snap-frozen on dry ice and stored at −80° C. for biochemistry; the other half was post-fixed in 4% paraformaldehyde then sagittally sectioned on a vibratome into 30 μm sections and stored at 4° C. in storage buffer until histological analyses.\n(§2) Aβ was assessed via free-floating immunohistochemistry using mAb 6E10 (1:1000, Covance) as previously described20. GAβ was assessed via free-floating immunohistochemistry using mouse anti-GAβ, clone 4396C (1:100), a gift from Dr. Katsuhiko Yanagisawa as previously described19. Images were captured on an Olympus BX61 upright microscope with an attached Olympus DP71 camera. Integrated density of GAβ staining was measured using Image J (National Institute of Health, Bethesda, Md.)."}, "β-hex [2]": {"target": "T2, β-hex (Mus musculus, UniProt P20060)", "T2 construct": "from tissue; host or cells: brain of Dutch APP E693Q transgenic mice", "T2 sequence (P20060 32-536)": "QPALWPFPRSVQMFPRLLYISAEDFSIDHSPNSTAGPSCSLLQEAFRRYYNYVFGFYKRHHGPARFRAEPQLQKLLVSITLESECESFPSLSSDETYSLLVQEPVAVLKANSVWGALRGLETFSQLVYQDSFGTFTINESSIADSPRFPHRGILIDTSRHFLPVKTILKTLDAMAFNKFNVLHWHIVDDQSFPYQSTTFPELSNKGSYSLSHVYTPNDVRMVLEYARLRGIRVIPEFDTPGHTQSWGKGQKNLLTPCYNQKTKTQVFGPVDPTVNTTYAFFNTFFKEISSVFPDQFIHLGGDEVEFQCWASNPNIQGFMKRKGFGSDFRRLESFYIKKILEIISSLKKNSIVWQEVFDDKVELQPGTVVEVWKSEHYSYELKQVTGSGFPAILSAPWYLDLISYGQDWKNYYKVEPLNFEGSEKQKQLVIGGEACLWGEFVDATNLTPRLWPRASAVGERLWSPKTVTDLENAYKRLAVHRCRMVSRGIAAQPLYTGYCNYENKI", "assay": "Proof-of-concept study: brain β-hex levels", "assay_type": "in vivo, Dutch APP^E693Q transgenic mice", "conditions": "3-month course, dose-dependent", "method": "as §1"}, "β-hex [3]": {"test_system": "β-hex", "assay": "Proof-of-concept study: brain β-hex levels", "assay_type": "in vivo, Dutch APP^E693Q transgenic mice", "conditions": "3-month course", "method": "as §1"}, "[4]": {"test_system": "ganglioside-bound Aβ (GAβ)", "assay": "GAβ immunohistochemistry (clone 4396C)", "assay_type": "in vivo, Dutch APP^E693Q transgenic mice", "conditions": "100 mg/kg, 3 months", "method": "as §1, §2"}},
  "data": [
    {"compound": "CC(=O)NC1CNC(CO)[C@@H](O)C1O", "note": "(stereo partly shown) [AdDNJ, 2-acetamido-1,2-dideoxynojirimycin]", "values": [
      {"measurement": "inhibition of O-GlcNAcase", "setting": "O-GlcNAcase", "value": "did not inhibit"},
      {"measurement": "increase in β-hex levels", "setting": "β-hex [1]", "value": "up to 3 fold"},
      {"measurement": "Aβ accumulation, CA1 region of the hippocampus", "setting": "Aβ", "value": "no differences were observed"},
      {"measurement": "Aβ accumulation, subiculum", "setting": "Aβ", "value": "qualitative region-specific reduction of Aβ accumulation"},
      {"measurement": "Aβ accumulation, visual cortex", "setting": "Aβ", "value": "no differences were observed"},
      {"measurement": "brain β-hex B level", "setting": "β-hex [2]", "value": "increased"},
      {"measurement": "increase in total brain β-hex", "setting": "β-hex [3]; 3-100 mg/kg oral 5 days/week, at the highest dose", "value": "up to 3 fold"},
      {"measurement": "brain β-hex A&S level", "setting": "β-hex [3]; dose-dependent", "value": "increased"},
      {"measurement": "GAβ immunoreactivity, CA1 region of the hippocampus", "setting": "[4]", "value": "did not reach significance"},
      {"measurement": "GAβ immunoreactivity, lateral entorhinal cortex", "setting": "[4]", "value": "trend toward reduction"},
      {"measurement": "GAβ immunoreactivity, perirhinal cortex", "setting": "[4]", "value": "striking quantitative reduction"},
      {"measurement": "GAβ immunoreactivity, subiculum", "setting": "[4]", "value": "striking quantitative reduction"},
      {"measurement": "GAβ immunoreactivity, visual cortex", "setting": "[4]", "value": "did not reach significance"}
    ]}
  ]
}
